This note sets out measurements from ChEMBL document CHEMBL2385059, “3-Hydroxyquinolin-2(1H)-ones As Inhibitors of Influenza A Endonuclease” (ACS Med Chem Lett, 2013).

Assay [1] can be described thus: Inhibition of H1N1 Influenza A endonuclease after 1 hr by fluorescence assay. More on the design: species or system Influenza A virus.
For another assay, the system named is MDCK. The assay can be described thus: Cytotoxicity against dog MDCK cells after 4 days by MTT assay. The format is cell-based. The conditions noted are these: Canis lupus familiaris, 96 h. A general note: Tetrazolium assays rely on reduction of a dye to a coloured formazan, in cell work by metabolically active cells.
A further assay concerns HEK293. The assay can be described thus: Cytotoxicity against HEK293 cells after 4 days by MTT assay. It is filed as cell-based. The conditions noted are these: Homo sapiens, HEK293, 96 h.

Each structure is given as a SMILES string. pIC50: −log10 of the molar value.

The pIC50 is the IC50 on a negative log10 scale, so that one unit is a factor of ten. Read a high pIC50 as a small IC50. Molecule `O=c1[nH]c2ccccc2c(-c2ccc(F)cc2)c1O` had a negative logarithm of the IC50 (pIC50) in assay [1] of 4.96. Still for that read-out and setting: the result for `O=c1[nH]c2c(-c3ccc(F)cc3)cccc2cc1O` reads 5.33. On the same count and under the same terms, the value for `O=c1[nH]c2cc(-c3ccc(F)cc3)ccc2c(-c2ccccc2)c1O` was 5.70. With `Cc1c(O)c(=O)[nH]c2ccccc12`, the pIC50 in assay [1] is less than 4.00.

For `O=c1[nH]c2cc(Br)ccc2cc1O`, the pIC50 in the assay with MDCK was less than 5.00; in assay [1] it was 5.12; in the assay with HEK293, less than 5.00. As for `O=c1[nH]c2c(Br)cccc2cc1O`, the negative-log IC50 (pIC50) in the assay on MDCK is less than 5.00; in assay [1], 4.96; with HEK293, less than 5.00. Molecule `O=c1[nH]c2cc(-c3ccc(F)cc3)ccc2c(Br)c1O` showed a negative logarithm of the IC50 (pIC50) in assay [1] of 5.96.

In the case of `O=c1[nH]c2ccc(-c3ccc(F)cc3)cc2cc1O`, the pIC50 in assay [1] was 6.30.

As for `O=c1[nH]c2cccc(Br)c2cc1O`, the negative-log IC50 (pIC50) was less than 5.00 in the assay on MDCK, 4.92 in assay [1] and less than 5.00 with HEK293. As for `O=c1[nH]c2cccc(-c3ccc(F)cc3)c2cc1O`, the negative-log IC50 (pIC50) in assay [1] is 5.48. With `O=c1[nH]c2ccccc2c(-c2ccccc2)c1O`, the pIC50 in assay [1] was less than 4.70. Still for that read-out and setting: the result for `Oc1nc2ccccc2c(Br)c1O` reads 4.28. For `O=c1[nH]c2ccc(Br)cc2cc1O`, the pIC50 in the assay on MDCK was less than 5.00; in assay [1] it was 5.13; in the assay with HEK293, less than 5.00.

`Cc1c(O)c(=O)[nH]c2cc(-c3ccc(F)cc3)ccc12` showed a negative-log IC50 (pIC50) in assay [1] of 4.89. The same measure, in the same setting: the value for `O=c1[nH]c2cc(-c3ccc(F)cc3)ccc2cc1O` was 6.30.
